From patent USRE37781E1, “Substituted cyclic carbonyls and derivatives thereof useful as retroviral protease inhibitors” (DuPont Pharmaceuticals Company, priority 1991, dated 2002)
≈ marks a conversion by molar mass, not a printed value. Like-named read-outs stand apart in the source and are kept apart here.

Legend:
[1] = biological target: single-chain tethered dimer of HIV protease (Human immunodeficiency virus 1, UniProt P04585); assay: biochemical; format: biochemical; design: fused on or other part: A second copy of the same protease unit is joined to the first by a short peptide tether, giving one polypeptide
Procedure: HIV Protease Inhibition Assay—HPLC Method
Active protease was prepared as described therein by extraction with 67% acetic acid, dilution 33-fold with water, dialysis against water and then against a “refolding buffer” consisting of 20 mM MES, 1 mM dithiothreitol and 10% glycerol. Protease was stored as a stock preparation at 10 uM in refolding buffer.
Substrate: Peptide of sequence: aminobenzoyl-Ala-Thr-His-Gln-Val-Tyr-Phe(NO2)-Val-Arg-Lys-Ala containing p-nitrophenylalanine, was prepared by solid phase synthesis as previously described Cheng et al., op.cit. Stock solutions of 2 mM substrate were prepared in DMSO.
Inhibitory compounds were dissolved in sufficient DMSO to make 3 mM stock solutions. All further dilutions were prepared in “assay buffer”: 1M NaCl, 50 mM MES, pH 5.5, 1 mM EDTA, 1 mM DTT, […] glycerol.
Enzyme reaction: In a 2 ml screw-cap centrifuge tube were added 50 ul protease (final concentration 0.25 nM) and 0.1 ml inhibitory compound (final concentration […]). After 15 min preincubation at room temperature, the reaction was started with the addition of 0.05 ml substrate (final concentration 5 uM). Incubation was carried out at 30 C. for 1 hr. The reaction was stopped with 1 ml 0.1M ammonium hydroxide.
HPLC measurement of product formation: The product (aminobenzoyl-Ala-Thr-His-Gln-Val-Tyr) was separated from substrate on a Pharmacia MonoQ anion exchange column. The injection volume was 0.2 ml. The mobile phases were: A (20 mM trisHCl, pH 9.0, 0.02% sodium Azide, 10% acetonitrile), B (20 mM tris HCl, pH 9.0, 0.02% sodium azide, 0.5M ammonium formate, 10% acetonitrile). The mobile phases were pumped at 1 ml/min, with a gradient from 0 to 30% B in 5 min, 100% B for 4 min to wash the column, and a re-equilibration for 4 min. The retention time of the product was 3.6 min. Detection with a Shimadzu model RF535 fluorescence monitor was at 330 nm (excitation) and 430 (emission).

HIV-1 (RF) in MT-2 cells = assay: microbe, parasite or virus in culture; format: cell-based
Procedure: DNA Plasmids and in vitro RNA transcripts:
Plasmid pDAB 72 containing both gag and pol sequences of BH10 (bp 113-1816) cloned into PTZ 19R was prepared according to Erickson-Viitanen et al. AIDS Research and Human Retroviruses 1989, 5, 577. The plasmid was linearized with Bam HI prior to the generation of in vitro RNA transcripts using the Riboprobe Gemini system II kit (Promega) with T7 RNA polymerase. Synthesized RNA was purified by treatment with RNase free DNAse (Promega), phenol-chloroform extraction, and ethanol precipitation. RNA transcripts were dissolved in water, and stored at −70° C. The concentration of RNA was determined from the A260.
Biotinylated capture probes were purified by HPLC after synthesis on an Applied Biosystems (Foster City, Calif.) DNA synthesizer by addition of biotin to the 5′ terminal end of the oligonucleotide, using the biotin-phosphoramidite reagent of Cocuzza, Tet. Lett. 1989, 30, 6287. The gag biotinylated capture probe (5-biotin-[…] 3′) was complementary to nucleotides 889-912 of HXB2 and the pol biotinylated capture probe (5′-biotin-[…] 3′) was complementary to nucleotides 2374-2395 of HXB2. Alkaline phosphatase conjugated oligonucleotides used as reporter probes were prepared by Syngene (San Diego, Calif.). The pol reporter probe (5′ […] 3′) was complementary to nucleotides 2403-2425 of HXB2. The gag reporter probe (5′ […] 3′) was complementary to nucleotides 950-973 of HXB2. All nucleotide positions are those of the GenBank Genetic Sequence Data Bank as accessed through the Genetics Computer Group Sequence Analysis Software Package (Devereau Nucleic Acids Research 1984, 12, 387). The reporter probes were prepared as 0.5μM stocks in 2× SSC (0.3M NaCl, 0.03M sodium citrate), 0.05M Tris pH 8.8, 1 mg/mL BSA. The biotinylated capture probes were prepared as 10 μM stocks in water.
Streptavidin coated plates:
Nunc-immunomodule microtiter plate strips were coated by addition of 200 μL of streptavidin (30 ug/mL, Scripps, La Jolla, Calif.) in freshly prepared 10 mM sodium carbonate (pH 9.6). Plates were incubated overnight at 4° C. Streptavidin solution was aspirated from the wells and a blocking buffer composed of phosphate buffered saline (PBS), 20 mg/mL bovine serum albumin (crystalline, nuclease and protease free, Calbiochem) and 100 mg/mL lactose (Sigma) was added to the plates for 3 hrs at room temperature. Blocking buffer was removed from the wells, which were allowed to dry overnight at room temperature and subsequently stored at 4° C. in zip lock bags with desiccant. For the majority of the compound evaluation experiments, streptavidin coated plates were obtained from Du Pont Biotechnology Systems (Boston, Mass.).
MT-2, CEM, and H9 cells were maintained in RPMI 1640 supplemented with 5% fetal calf serum (FCS), 2 mM L-glutamine and 50 μg/mL gentamycin, all from Gibco. Laboratory strains of HIV-1 (RF, MN and IIIB) were propagated in H9 cells in the same medium. Virus stocks were prepared approximately 1 month after acute infection of H9 cells by clarification of the tissue culture medium and storage of aliquots at −70° C. […] Each aliquot of virus stock used for infection was thawed only once. In some cases, infected H9 cells were shifted to Dulbecco's modified Eagle's medium 3-10 days before collection of virus in order to generate virus stocks in medium with low biotin content. Clinical isolates of HIV that had been passaged once in MT-2 cells were used to infect fresh MT-2 cells in RPMI medium. Three days after infection, cells were pelleted, resuspended and culture continued in Dulbecco's modified Eagle's medium as above. Virus stocks of clinical isolates were prepaid 10-15 days after infection when cytopathic effects were apparent in the culture.

[2] = Human immunodeficiency virus 1, MT2, Table 1e, read-out: IC90
[3] = Human immunodeficiency virus 1, MT2, HIV RNA assay, HIV-1 infected MT-2 cells, class symbols, read-out: IC90
[4] = Human immunodeficiency virus 1, MT2, 24 h, Table 1d, upper part, read-out: IC90

COCCOCO[C@@H]1C(=O)[C@@H](Cc2ccccc2)N(CC2CC2)C(=O)N(CC2CC2)[C@@H]1Cc1ccccc1 [Example 7AA]
Ki ([1]; read-out: HPLC Ki, Table 1d, lower part): > 1000 nM

COC(=O)c1cccc(CN2C(=O)N(Cc3cccc(C(=O)OC)c3)C(Cc3ccccc3)C(O)C2CCc2ccccc2)c1 (stereo not drawn) [Example 8AQ]
IC90 (HIV-1 (RF) in MT-2 cells; [2]): > 100 µg/mL

O=C1N(Cc2ccc3ccccc3n2)C(Cc2ccccc2)C(O)C(O)C(Cc2ccccc2)N1Cc1ccc2ccccc2n1 (stereo not drawn) [Example 6K]
IC90 (HIV-1 (RF) in MT-2 cells; [3]): > 100 µg/mL

C=CCN1C(=O)N(CC=C)C(Cc2ccc(OC)cc2)C(O)C(O)C1Cc1ccc(OC)cc1 (stereo not drawn) [20AL]
Ki ([1]; Table 2i, read-out: HPLC Ki): < 10 nM

CCOC(=O)COc1cccc(CC2C(O)C(O)C(Cc3cccc(OCC(=O)OCC)c3)N(CC3CC3)C(=O)N2CC2CC2)c1 (stereo not drawn) [20AV]
Ki ([1]; Table 2i, read-out: HPLC Ki): 10 to 1000 nM

O=C1N(Cc2ccccc2)C(Cc2ccccc2)C(O)C(O)C(Cc2ccccc2)N1Cc1ccccc1 (stereo not drawn) [Example 13Y]
Ki ([1]; read-out: HPLC K1, Table 2d, class symbols): > 1000 nM

O=C1N(Cc2ccc3ccccc3c2)C(Cc2ccccc2)C2OCOC2C(Cc2ccccc2)N1Cc1ccc2ccccc2c1 (stereo not drawn) [Example 7Q]
IC90 (HIV-1 (RF) in MT-2 cells; [4]): 10 to 100 µg/mL (≈ 16.2 to 162 µM)

CN(C)CCNC(=O)c1cccc(CN2C(=O)N(Cc3cccc(C(=O)NCCN(C)C)c3)C(Cc3ccccc3)C(O)C(O)C2Cc2ccccc2)c1 (stereo not drawn) [15XW]
IC90 (HIV-1 (RF) in MT-2 cells; Table 2d, HIV RNA assay): ++ (++=10 to 100 μg/mL)

CC(=NO)c1cccc(CN2C(=O)N(Cc3cccc(C(C)=NO)c3)C(Cc3ccccc3)C(O)C(O)C2Cc2ccccc2)c1 (stereo not drawn) [Example 15XS]
IC90 (HIV-1 (RF) in MT-2 cells; Human immunodeficiency virus 1, MT2, 48 h, Table 2d, HIV RNA assay, read-out: IC90): < 10 µg/mL

C=CCN1C(=O)N(CC=C)C(Cc2ccccc2)C2OCSCOC2C1Cc1ccccc1 (stereo not drawn) [Example 7B]
IC90 (HIV-1 (RF) in MT-2 cells; [4]): 10 to 100 µg/mL (≈ 21.5 to 215 µM)

O=C1N(CC2CC2)C(Cc2ccccc2)C2OCOC2C(Cc2ccccc2)N1CC1CC1 (stereo not drawn) [Example 7H]
IC90 (HIV-1 (RF) in MT-2 cells; [4]): 10 to 100 µg/mL (≈ 22.4 to 224 µM)

COC(=O)c1cccc(CN2C(=O)N(Cc3cccc(C(=O)OC)c3)[C@H](Cc3ccccc3)[C@H](O)[C@H]2CCc2ccccc2)c1 [Example 8Y]
IC90 (HIV-1 (RF) in MT-2 cells; [2]): 10 to 100 µg/mL (≈ 16.5 to 165 µM)

NC(=NO)c1cccc(CN2C(=O)N(Cc3cccc(C(N)=NO)c3)C(Cc3ccccc3)C(O)C2CCc2ccccc2)c1 (stereo not drawn) [Example 8AO]
IC90 (HIV-1 (RF) in MT-2 cells; Table 1e): + (+=>100 μg/mL)

O=C1N(Cc2cccc(I)c2)C(Cc2ccccc2)C(O)C(O)C(Cc2ccccc2)N1Cc1ccc2[nH]nnc2c1 (stereo not drawn) [15DT]
IC90 (HIV-1 (RF) in MT-2 cells; Table 2d, HIV RNA assay): +++ (+++=<10 μg/mL)

O=C1N(Cc2ccc3ccccc3c2)C(Cc2ccccc2)C(O)C(C(Br)Cc2ccccc2)N1Cc1ccc2ccccc2c1 (stereo not drawn) [Example 8R]
IC90 (HIV-1 (RF) in MT-2 cells; [2]): > 50 µg/mL

Nc1ccn([C@H]2CC[C@@H](CO)O2)c(=O)n1 [dideoxycytidine, reference compound]
IC90 (HIV-1 (RF) in MT-2 cells; Human immunodeficiency virus 1, MT2, virus inoculum standardisation, HIV-1 (RF), MT-2 cells, read-out: IC50 value (concentration of compound required to reduce the HIV RNA level by 90%)): 0.2 µg/mL (≈ 0.947 µM)

O=C1N(Cc2cccc(C(F)(F)F)c2)C(Cc2ccccc2)C(O)C(O)C(Cc2ccccc2)N1Cc1cccc(C(F)(F)F)c1 (stereo not drawn) [Example 6Y]
IC90 (HIV-1 (RF) in MT-2 cells; [3]): > 100 µg/mL

O=C1N(Cc2ccc3ccccc3c2)C(C(F)Cc2ccccc2)[C@@H](O)[C@@H](Cc2ccccc2)N1Cc1ccc2ccccc2c1 (stereo partly drawn) [Example 7X]
IC90 (HIV-1 (RF) in MT-2 cells; [2]): > 100 µg/mL
